From US8748520B2, “Polycarbonate resin composition containing triazine compound and molded article using the same” (FUJIFILM Corporation, priority 2009, dated 2014)

Assay: Measurement of pKa from absorption spectra
Format: physicochemical
Details: in acetonitrile, 70% perchloric acid (solvent: acetic acid) added dropwise; proton adduct at nitrogen atom of triazine ring
Description: <Method for Measuring pKa>
Compound (1) was dissolved in acetonitrile to give an absorbance of 1 and to this solution, 70% perchloric acid (solvent: acetic acid) was added dropwise, thereby varying the pH. At this time, the absorption spectrum of solution was measured and based on the absorbance at λmax, the proportions of a triazine-free form and a proton adduct were calculated at each pH. From the point at which these values became equal, the pKa value was determined. Here, the triazine-free form indicates Compound (1) itself, and the proton adduct indicates a compound resulting from addition of a proton to the nitrogen atom of triazine ring of Compound (1). […] The absorption spectrum was measured using a spectrophotometer, UV-3600 (trade name), manufactured by Shimadzu Corporation, and the pH was measured using a pH meter, HM60G (trade name), manufactured by To a Denpa Kogyo. Incidentally, the absorbance is a value measured at the maximum absorption wavelength of each compound.

pKa, -5:
COC(=O)c1ccc(-c2nc(-c3ccccc3O)nc(-c3ccc(OC)cc3O)n2)cc1 [Compound (104)]
COc1ccc(-c2nc(-c3ccc(C(=O)OCC(CCCCC(C)C)CCC(C)C)cc3)nc(-c3ccccc3O)n2)c(O)c1 (stereo not shown) [Compound (114)]
CCCCCCCCC(CCCCCC)COC(=O)c1ccc(-c2nc(-c3ccccc3O)nc(-c3ccc(OC)cc3O)n2)cc1 (stereo not shown) [Compound (115)]
CCC(C)CCCCCC(CCCC(C)CC)COC(=O)c1ccc(-c2nc(-c3ccccc3O)nc(-c3ccc(OC)cc3O)n2)cc1 (stereo not shown) [Compound (116)]
COc1ccc(-c2nc(-c3ccc(C(=O)OCC(CCC(C)CC(C)(C)C)C(C)CC(C)(C)C)cc3)nc(-c3ccccc3O)n2)c(O)c1 (stereo not shown) [Compound (117)]
CCCCCCCCCC(CCCCCCC)COC(=O)c1ccc(-c2nc(-c3ccccc3O)nc(-c3ccc(OC)cc3O)n2)cc1 (stereo not shown) [Compound (118)]
COc1ccc(-c2nc(-c3ccc(C(=O)OCC(CCC(C)CCCC(C)C)C(C)CCCC(C)C)cc3)nc(-c3ccccc3O)n2)c(O)c1 (stereo not shown) [Compound (119)]
